Drawing on patent publication US20240269298A1, “PHOSPHONYL DERIVATIVE, AND COMPOSITION AND PHARMACEUTICAL APPLICATION THEREOF” (XIZANG HAISCO PHARMACEUTICAL CO., LTD., priority 2021, published 2024), this text covers DC50 for 2 molecules.

The assay concerns the target T1, EGFR protein in NCI-H1975 EGFR-L858R-T790M-C797S cells (Homo sapiens, UniProt P00533, C797S/L858R/T790M).
T1 construct: expressed in transfected cells; host or cells: NCI-H1975 EGFR-L858R-T790M-C797S (kept under hygromycin selection)
The assay is described as follows: Degradation activity on EGFR protein in NCI-H1975 EGFR-L858R-T790M-C797S cells, Method II (western blot, 48 h). In kind it is cell-based. The conditions noted are these: 48 h incubation, EGFR protein relative to DMSO control. As for the experimental part: Protein sample preparation: NCI-H1975 EGFR-L858R-T790M-C797S cells were cultured in an incubator at 37° C. with 5% CO2, and the culture medium was RPMI1640+10% FBS+100 μg/mL hygromycin. The cells in the logarithmic phase were collected, and the cell suspension was adjusted to an appropriate concentration with a hygromycin-free culture medium, plated on a 6-well plate at a density of 350000 cells/well and a volume of 2 mL, and cultured overnight in an incubator at 37° C. with 5% CO2. The next day, the compounds at different concentrations were added. DMSO control wells were provided, wherein the concentration of DMSO in all wells was 0.1%. The 6-well plate was cultured in an incubator at 37° C. with 5% CO2 for 48 h, and then 30 μL of RIPA lysates (Beyotime, Cat. P0013B) containing protease inhibitors (Beyotime, Cat. P0013B) were added. The mixtures were lysed on ice for 30 min. Centrifugation was carried out at 13000 rpm/min at 4° C. for 20 minutes to collect protein supernatant samples, and protein quantification was performed by the BCA method. Western Blot detection samples were prepared.
Western blot detection: 20 μg of protein samples were added to each well, subjected to polyacrylamide gel electrophoresis and transferred to a membrane, and then diluted anti-EGFR (CST, Cat. 4267S) and […] (Kangchen, Cat. KC-5G4) antibodies were added and incubated overnight at 4° C. After washing the membrane, diluted goat anti-rabbit (Licor, Cat. 926-32211) and goat anti-mouse (Licor, Cat. 926-68070) antibodies were added and incubated in the dark for 45 min. Scanning and detection at wavelengths of 700 nm and 800 nm were performed with a far-infrared imaging system (Odyssey).
According to formula (3), the expression level of EGFR protein in the cells relative to the DMSO control group was calculated after incubation with different concentrations of compounds. wherein EGFRcompound was the fluorescence value of EGFR protein after incubation with compounds, and EGFRvehicle was the fluorescence value of EGFR protein in the DMSO control group. Using the Origin 9.2 software, the drug concentration DC50 values when the expression level of EGFR protein was 50% relative to the DMSO control group were calculated.
For orientation: Immunoblotting shows a protein as a band on a membrane.

T1 sequence (P00533 25-1210 T790M/C797S/L858R): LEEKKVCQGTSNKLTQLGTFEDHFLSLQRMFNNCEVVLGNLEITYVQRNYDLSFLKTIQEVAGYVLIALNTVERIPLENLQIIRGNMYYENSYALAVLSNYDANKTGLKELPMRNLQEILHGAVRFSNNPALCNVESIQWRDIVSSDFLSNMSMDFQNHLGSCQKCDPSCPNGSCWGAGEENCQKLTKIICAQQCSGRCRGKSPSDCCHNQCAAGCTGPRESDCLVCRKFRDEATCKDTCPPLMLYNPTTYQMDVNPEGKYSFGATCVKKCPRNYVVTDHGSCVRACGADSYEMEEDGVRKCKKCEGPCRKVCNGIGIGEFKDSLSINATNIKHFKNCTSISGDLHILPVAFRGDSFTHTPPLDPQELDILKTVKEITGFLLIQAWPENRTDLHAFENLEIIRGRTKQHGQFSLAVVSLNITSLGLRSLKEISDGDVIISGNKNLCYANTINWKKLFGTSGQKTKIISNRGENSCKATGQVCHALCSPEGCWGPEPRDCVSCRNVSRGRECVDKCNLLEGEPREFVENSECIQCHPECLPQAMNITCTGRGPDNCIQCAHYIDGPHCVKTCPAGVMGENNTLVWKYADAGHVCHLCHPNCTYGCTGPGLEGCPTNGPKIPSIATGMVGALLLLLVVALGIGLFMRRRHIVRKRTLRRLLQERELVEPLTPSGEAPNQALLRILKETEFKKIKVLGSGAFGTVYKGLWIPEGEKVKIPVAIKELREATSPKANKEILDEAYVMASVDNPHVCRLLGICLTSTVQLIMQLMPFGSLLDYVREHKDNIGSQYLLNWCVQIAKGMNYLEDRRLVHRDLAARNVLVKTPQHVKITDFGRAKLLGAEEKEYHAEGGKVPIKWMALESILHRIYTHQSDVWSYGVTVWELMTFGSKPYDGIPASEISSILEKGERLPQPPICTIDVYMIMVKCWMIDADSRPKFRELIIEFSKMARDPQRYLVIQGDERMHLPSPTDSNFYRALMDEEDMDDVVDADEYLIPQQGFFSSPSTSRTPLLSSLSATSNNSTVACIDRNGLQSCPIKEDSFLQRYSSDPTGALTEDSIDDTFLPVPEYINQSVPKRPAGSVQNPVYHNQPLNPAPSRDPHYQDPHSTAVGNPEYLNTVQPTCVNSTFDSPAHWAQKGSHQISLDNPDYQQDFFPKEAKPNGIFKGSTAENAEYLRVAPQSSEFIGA

For orientation: DC50 means the midpoint of the concentration-degradation curve. The low end stands for a more potent degrader, the high end for a less potent degrader. For `COc1cc(N2CCC(CN3CCN(c4ccc5c(c4)C(=O)N(C4CCC(=O)NC4=O)C5=O)CC3)CC2)c(-c2cnn(C)c2)cc1Nc1ncc(Br)c(Nc2ccc(C3CC3)cc2P(C)(C)=O)n1` (centres unmarked) [Compound 106, 5-(4-((1-(4-((5-bromo-4-((4-cyclopropyl-2-(dimethylphosphoryl)phenyl)amino)pyrimidin-2-yl)amino)-5-methoxy-2-(1-methyl-1H-pyrazol-4-yl)phenyl)piperidin-4-yl)methyl)piperazin-1-yl)-2-(2,6-dioxopiperidin-3-yl)isoindoline-1,3-dione], the DC50 was < 100 nM. For `COc1cc(N2CCC(CN3CCN(c4ccc5c(c4)C(=O)N(C4CCC(=O)NC4=O)C5=O)CC3)CC2)c(-c2cnn(C)c2)cc1Nc1ncc(Cl)c(Nc2ccc(C3CC3)cc2P(C)(C)=O)n1` (centres unmarked) [Compound 107, 5-(4-((1-(4-((5-chloro-4-((4-cyclopropyl-2-(dimethylphosphoryl)phenyl)amino)pyrimidin-2-yl)amino)-5-methoxy-2-(1-methyl-1H-pyrazol-4-yl)phenyl)piperidin-4-yl)methyl)piperazin-1-yl)-2-(2,6-dioxopiperidin-3-yl)isoindoline-1,3-dione] the value was < 100 nM.
